Measured values published in PubChem BioAssay (NCI).
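Step 1: Grow cells in 96-well plates. Step 2: Expose to compound for 48 hours at 5 concentrations. Step 3: Interpolate endpoints linearly; if unreached, use highest concentration. GI50 marks 50% less growth. TGI: concentration producing complete growth inhibition.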

Legend:
Test in all cases: growth of human tumour cells (NCI), 48 h
EKVX NSCLC = test system: EKVX NSCLC
HOP-92 NSCLC = test system: HOP-92 NSCLC
HS 578T breast = test system: HS 578T breast
IGROV1 ovarian = test system: IGROV1 ovarian
K-562 leukemia = test system: K-562 leukemia
NCI/ADR-RES ovarian = test system: NCI/ADR-RES ovarian
OVCAR-4 ovarian = test system: OVCAR-4 ovarian
SNB-19 CNS = test system: SNB-19 CNS
SNB-75 CNS = test system: SNB-75 CNS
UACC-62 melanoma = test system: UACC-62 melanoma

Row | SMILES | TGI (EKVX NSCLC) | TGI (HOP-92 NSCLC) | TGI (HS 578T breast) | TGI (IGROV1 ovarian) | TGI (K-562 leukemia) | TGI (NCI/ADR-RES ovarian) | TGI (OVCAR-4 ovarian) | TGI (SNB-19 CNS) | TGI (SNB-75 CNS) | TGI (UACC-62 melanoma) | GI50 (EKVX NSCLC) | GI50 (HOP-92 NSCLC) | GI50 (HS 578T breast) | GI50 (IGROV1 ovarian) | GI50 (K-562 leukemia) | GI50 (NCI/ADR-RES ovarian) | GI50 (OVCAR-4 ovarian) | GI50 (SNB-19 CNS) | GI50 (SNB-75 CNS) | GI50 (UACC-62 melanoma)
1 | COc1cc2c(cc1OC)[C@H](C)N1CCc3cc(OC)c(OC)cc3[C@@H]1C2 | > 100000 nM | > 100000 nM | > 100000 nM | > 100000 nM | > 100000 nM | > 100000 nM | > 100000 nM | > 100000 nM | > 100000 nM | > 100000 nM | – | – | – | – | – | – | – | – | – | –
2 | Cc1cc(NCCCN(C)C)c2ccc3c(ccc4c(NCCCN(C)C)cc(C)nc43)c2n1 | 821 nM | 298 nM | 667 nM | 377 nM | > 100000 nM | 3380 nM | 508 nM | 514 nM | 420 nM | 930 nM | 246 nM | 66.5 nM | 197 nM | 152 nM | 454 nM | 583 nM | 162 nM | 181 nM | 165 nM | 283 nM
3 | COC1CC(O[C@H]2CC[C@@]3(C)[C@H](CC[C@@H]4[C@@H]3CC[C@]3(C)[C@@H](C5=CC(=O)OC5)[C@@H](OC(C)=O)C[C@]43O)C2)OC(C)C1O (stereo not given in full) | < 10 nM | < 10 nM | < 14.5 nM | < 10 nM | < 13.5 nM | < 10 nM | < 10 nM | < 10 nM | < 10 nM | < 10 nM | < 10 nM | < 10 nM | < 10 nM | < 10 nM | < 10 nM | < 10 nM | < 10 nM | < 10 nM | < 10 nM | < 10 nM
4 | CC(C)(C)C(=O)OCC1C(=O)OCC1C(=O)N1Cc2cc3ccccc3nc2C1 (stereo not given) | 22400 nM | 3690 nM | 64300 nM | 29100 nM | 2640 nM | 18900 nM | 7670 nM | 38600 nM | 19900 nM | 15700 nM | – | – | – | – | – | – | – | – | – | –
5 | CC(C)CCCC(C)[C@H]1CCC2[C@@H]3CCC4Cc5nc6c(nc5C[C@]4(C)C3CC[C@@]21C)CC1CC[C@@H]2C(CC[C@@]3(C)C2CC[C@@H]3C(C)CCCC(C)C)[C@@]1(C)C6 (stereo not given in full) | > 100000 nM | > 100000 nM | > 100000 nM | > 100000 nM | > 100000 nM | > 100000 nM | > 100000 nM | > 100000 nM | > 100000 nM | > 100000 nM | – | – | – | – | – | – | – | – | – | –
6 | CC(=O)N1CC(C)(C)c2c(C)c(O)c(C)c(C)c21 | > 100000 nM | > 100000 nM | > 100000 nM | > 100000 nM | > 100000 nM | > 100000 nM | > 100000 nM | > 100000 nM | > 100000 nM | > 100000 nM | – | – | – | – | – | – | – | – | – | –
